Read-outs that look alike come from different tables or passages of the source.

The record followed here is US20110251213A1, “Cosmetic Use of 1-Aroyl-N-(2-oxo-3-piperidinyl)-2-Piperazine Carbomamides and Related Compounds” (Avon Products, Inc., priority 2008, published 2011).

For one experiment, the system named is procollagen 1. The settings on record: human dermal fibroblasts, 5 μg/ml, 48 hours. Here is the method:
Human dermal fibroblasts (Cascade Biologics) were cultured in 96-well tissue culture plates in growth medium (DMEM, 5% FBS, 1% L-Glut, and 1% antibiotics) and incubated for 24 hours at 37° C. […] Procollagen 1 levels were assayed using an ELISA kit from Takara (Procollagen Type-1 C-Peptide EIA Kit, Takara Bio Inc.) as per manufacturer's instructions.

For a further experiment, the system named is Desmoglein 1. The settings on record: keratinocytes. As for the experimental part: Normal human keratinocytes were cultured in 96 well tissue culture treated plates in Epilife medium with growth supplements (Cascade Biologics Inc.). Cells were treated with test material or a dimethylsulfoxide vehicle control diluted in growth medium for 24 hours in a humidified 37° C. incubator with 10% CO2. After incubation, growth medium from each plate was removed and 100 μl of lysis buffer was added to each of the wells and placed in the humidified 37° C. incubator with 10% CO2 for 30 minutes. At the end of the incubation period, the cells were collected in freezer plates and placed in a −80° C. freezer, until analysis. Changes in mRNA for Desmoglein 3 (DSG3) after treatment were analysed using Panomics Quantigene multiplex assay that employs branched DNA technology.

For a further experiment, the system named is Dermatopontin. As to conditions: fibroblasts, 24 hours, p<0.05. As for the experimental part:
Normal human dermal fibroblasts were cultured in 96 well tissue culture treated plates, containing appropriate culture medium. Cells were treated with 1-aroyl-N-(2-oxo-3-piperidinyl)-2-piperazine carboxamide test material, diluted in growth medium, for 24 hours in a humidified 37° C. incubator with 10% CO2. After incubation, growth medium from each plate was removed and 100 μl of lysis buffer was added to the wells and placed in 37° C. incubator with10% CO2 for 30 minutes. At the end of incubation, the cells were collected in freezer plates and placed in −80° C. freezer, until analysis. Changes in mRNA for Dermatopontin after treatment were analysed using Panomics Quantigene multiplex assay that employs a branched DNA technology.

“1-aroyl-N-(2-oxo-3-piperidinyl)-2-piperazine carboxamide”: the “increase in collagen synthesis compared to control” value with procollagen 1 amounted to 75.4%. Moreover, the “increase in Desmoglein 1 expression” value in the experiment on Desmoglein 1 (0.00005% of the test material, 24 hours) is recorded as “did not show a statistically significant increase”; in the experiment on Desmoglein 1 (concentration of 0.0005%, after 24 hours, average of three samples, p<0.05) it was 95%. Also, the “stimulation in mRNA levels for Dermatopontin” value in the experiment with Dermatopontin (0.00005%) came out at 43%; in the experiment with Dermatopontin (0.0005%), 62%.
